Laboratory results published in PubChem BioAssay AID256 (DTP/NCI, 2004).
Where “and” joins values, the source holds several entries; their conditions need not be identical. Equal entries are not always repeated. Toxic doses and inconclusive results are not listed.

System: CD2F1 mice, L1210 leukemia ip, survival T/C
Experiment: NCI In Vivo Anticancer Drug Screen. Data for tumor model L1210 Leukemia (intraperitoneal) in CD2F1 (CDF1) mice
Conditions: higher = longer survival
Procedure, shortened: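 Transplantable tumor in mice; compound-treated vs vehicle-treated groups. Read-out = treated/control ratio of the measured endpoint.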

[1] = endpoint: mean survival time, dose: 100.0 mg/kg/injection, schedule: Q01DX009 (ip), vehicle: saline
[2] = endpoint: mean survival time, dose: 100.0 mg/kg/injection, schedule: Q04DX003 (ip), vehicle: saline with Tween-80
[3] = endpoint: mean survival time, dose: 200.0 mg/kg/injection, schedule: Q04DX003 (ip), vehicle: saline with Tween-80
[4] = endpoint: mean survival time, dose: 400.0 mg/kg/injection, schedule: Q04DX003 (ip), vehicle: saline with Tween-80
[5] = endpoint: mean survival time, dose: 100.0 mg/kg/injection, schedule: Q01DX001 (ip), vehicle: saline with Tween-80
[6] = endpoint: mean survival time, dose: 200.0 mg/kg/injection, schedule: Q01DX001 (ip), vehicle: saline with Tween-80
[7] = endpoint: mean survival time, dose: 400.0 mg/kg/injection, schedule: Q01DX001 (ip), vehicle: saline with Tween-80
[8] = endpoint: mean survival time, dose: 100.0 mg/kg/injection, schedule: Q04DX003 (ip), vehicle: saline
[9] = endpoint: mean survival time, dose: 200.0 mg/kg/injection, schedule: Q04DX003 (ip), vehicle: saline
[10] = endpoint: mean survival time, dose: 400.0 mg/kg/injection, schedule: Q04DX003 (ip), vehicle: saline
[11] = endpoint: mean survival time, dose: 50.0 mg/kg/injection, schedule: Q01DX009 (ip), vehicle: saline

For CCCCC(C(=O)OCC)C1=NC(C)(C)CC(C)O1 (centres undefined), the T/C [1] was 98 % of control, the T/C (endpoint: mean survival time, dose: 100.0 mg/kg/injection, schedule: Q04DX003 (ip), vehicle: acetone) was 101 % of control and the T/C (endpoint: mean survival time, dose: 200.0 mg/kg/injection, schedule: Q01DX009 (ip), vehicle: saline) was 97 % of control. For the same compound, the T/C (endpoint: mean survival time, dose: 200.0 mg/kg/injection, schedule: Q04DX003 (ip), vehicle: acetone) was 90 % of control, the T/C (endpoint: mean survival time, dose: 400.0 mg/kg/injection, schedule: Q01DX009 (ip), vehicle: saline) was 97 % of control and the T/C (endpoint: mean survival time, dose: 400.0 mg/kg/injection, schedule: Q04DX003 (ip), vehicle: acetone) was 91 % of control.

CC(=O)C(CN(C)C)C(C)=O was tested, and the T/C (endpoint: mean survival time, dose: 75.0 mg/kg/injection, schedule: Q01DX001 (ip), vehicle: other) was 106 % of control and the T/C (endpoint: mean survival time, dose: 150.0 mg/kg/injection, schedule: Q01DX001 (ip), vehicle: other) was 106 % of control.

With C=CC1CN(CCc2cc3ccccc3[nH]2)CCC1CC(=O)OCC (centres undefined) the T/C [2] was 97 % of control, the T/C [3] was 101 % of control and the T/C [4] was 94 % of control.

COc1ccc(OC)c(/C=N/N=C/c2cc(OC)ccc2OC)c1 was tested, and the T/C [2] was 106 % of control, the T/C [3] was 94 % of control and the T/C [4] was 94 % of control.

For N=C(OC/C=C/c1ccccc1)C(Cl)(Cl)Cl, the T/C [5] was 93 % of control, the T/C [6] was 93 % of control and the T/C [7] was 93 % of control.

For S=C(Nc1ccccn1)c1ccccn1, the T/C (endpoint: mean survival time, dose: 100.0 mg/kg/injection, schedule: Q04DX002 (ip), vehicle: saline with Tween-80) was 111 % of control, the T/C [2] was 100 % of control and the T/C (endpoint: mean survival time, dose: 200.0 mg/kg/injection, schedule: Q04DX002 (ip), vehicle: saline with Tween-80) was 95 % of control. The T/C [3] was 94 % of control, the T/C (endpoint: mean survival time, dose: 400.0 mg/kg/injection, schedule: Q04DX002 (ip), vehicle: saline with Tween-80) was 103 % of control and the T/C [4] was 103 % of control.

CCOC1OC(COC(C)=O)C(OC(C)=O)C(OC(C)=O)C1OC(C)=O (centres undefined) was tested, and the T/C [5] was 94 % of control, the T/C [6] was 97 % of control and the T/C [7] was 96 % of control.

For O=C(O)CBr.O=C(O)CBr.[NH-]C1CCCCCCC1[NH-].[Pt+2] (centres undefined), the T/C (endpoint: mean survival time, dose: 4.68 mg/kg/injection, schedule: Q01DX001 (ip), vehicle: distilled water + Tween-80) was 122 % of control, the T/C (endpoint: mean survival time, dose: 9.36 mg/kg/injection, schedule: Q01DX001 (ip), vehicle: distilled water + Tween-80) was 119 % of control and the T/C (endpoint: mean survival time, dose: 18.75 mg/kg/injection, schedule: Q01DX001 (ip), vehicle: distilled water + Tween-80) was 161 % of control.

CC(=O)OCC(COC(C)=O)(COC(C)=O)COC(C)=O was tested, and the T/C (endpoint: mean survival time, dose: 100.0 mg/kg/injection, schedule: Q01DX009 (ip), vehicle: saline with Tween-80) was 97 % of control, the T/C [2] was 100 % of control and the T/C (endpoint: mean survival time, dose: 200.0 mg/kg/injection, schedule: Q01DX009 (ip), vehicle: saline with Tween-80) was 97 % of control. For the same compound, the T/C [3] was 96 % of control, the T/C (endpoint: mean survival time, dose: 400.0 mg/kg/injection, schedule: Q01DX009 (ip), vehicle: saline with Tween-80) was 98 % of control and the T/C [4] was 93 % of control.

C[N+](C)(CC(=O)O)c1ccccc1 was tested, and the T/C [8] was 98 % of control, the T/C [9] was 96 % of control and the T/C [10] was 108 % of control.

For O=c1[nH]cc(F)c(=O)n1C1CCCCO1 (centres undefined), the T/C (endpoint: mean survival time, dose: 12.5 mg/kg/injection, schedule: Q01DX009 (ip), vehicle: saline) was 121 % of control, the T/C (endpoint: mean survival time, dose: 12.5 mg/kg/injection, schedule: Q04DX003 (ip), vehicle: saline) was 98 % of control and the T/C (endpoint: mean survival time, dose: 25.0 mg/kg/injection, schedule: Q04DX003 (ip), vehicle: saline) was 102 % of control. For the same compound, the T/C [11] was 156 % of control, the T/C (endpoint: mean survival time, dose: 50.0 mg/kg/injection, schedule: Q04DX003 (ip), vehicle: saline) was 98 % of control and the T/C [1] was 175 % of control and 184 % of control. The T/C [8] was 100 % of control.

Cc1ccc([P+](=O)O)cc1Cl was tested, and the T/C [8] was 102 % of control, the T/C [9] was 97 % of control and the T/C [10] was 103 % of control.

CCOC(=O)c1cnc(N(C)C)nc1SC(=N)N was tested, and the T/C [11] was 102 % of control, the T/C [1] was 118 % of control and the T/C [8] was 106 % of control. The T/C [9] was 91 % of control.

For COc1cccc2c1C(=O)c1c(O)c3c(c(O)c1C2=O)C[C@](O)(C(=O)CO)CC3OC1CC(N)C(OC2CCCCO2)C(C)O1 (some centres undefined), the T/C (endpoint: median survival time, dose: 3.0 mg/kg/injection, schedule: Q01DX009 (ip), vehicle: water) was 123 % of control and 227 % of control and the T/C (endpoint: median survival time, dose: 6.0 mg/kg/injection, schedule: Q01DX009 (ip), vehicle: water) was 91 % of control.

For Nc1nc2ncc(CSc3ccc(C(=O)NC(CCC(=O)O)C(=O)O)cc3)nc2c(=O)[nH]1 (centres undefined), the T/C (endpoint: mean survival time, dose: 1.0 mg/kg/injection, schedule: Q01DX009 (ip), vehicle: sodium bicarbonate) was 107 % of control, the T/C (endpoint: mean survival time, dose: 2.0 mg/kg/injection, schedule: Q01DX009 (ip), vehicle: saline with Tween-80) was 101 % of control and the T/C (endpoint: mean survival time, dose: 2.0 mg/kg/injection, schedule: Q01DX009 (ip), vehicle: sodium bicarbonate) was 111 % of control. The T/C (endpoint: mean survival time, dose: 4.0 mg/kg/injection, schedule: Q01DX009 (ip), vehicle: saline with Tween-80) was 101 % of control, the T/C (endpoint: mean survival time, dose: 4.0 mg/kg/injection, schedule: Q01DX009 (ip), vehicle: sodium bicarbonate) was 124 % of control and the T/C (endpoint: mean survival time, dose: 5.4 mg/kg/injection, schedule: Q01DX009 (ip), vehicle: sodium bicarbonate) was 90 % of control. The T/C (endpoint: mean survival time, dose: 8.0 mg/kg/injection, schedule: Q01DX009 (ip), vehicle: saline with Tween-80) was 104 % of control, the T/C (endpoint: mean survival time, dose: 8.0 mg/kg/injection, schedule: Q01DX009 (ip), vehicle: sodium bicarbonate) was 97 % of control and the T/C (endpoint: mean survival time, dose: 12.0 mg/kg/injection, schedule: Q01DX009 (ip), vehicle: sodium bicarbonate) was 95 % of control. The T/C (endpoint: mean survival time, dose: 16.0 mg/kg/injection, schedule: Q01DX009 (ip), vehicle: saline with Tween-80) was 97 % of control, the T/C (endpoint: mean survival time, dose: 16.0 mg/kg/injection, schedule: Q01DX009 (ip), vehicle: sodium bicarbonate) was 113 % of control and the T/C (endpoint: mean survival time, dose: 32.0 mg/kg/injection, schedule: Q01DX009 (ip), vehicle: saline with Tween-80) was 101 % of control.

For CC(C)(C)c1cc(C(C)(C)C)nc([N+](C)(C)C)c1, the T/C (endpoint: mean survival time, dose: 12.5 mg/kg/injection, schedule: Q04DX002 (ip), vehicle: saline with Tween-80) was 108 % of control, the T/C (endpoint: mean survival time, dose: 25.0 mg/kg/injection, schedule: Q04DX002 (ip), vehicle: saline with Tween-80) was 101 % of control and the T/C (endpoint: mean survival time, dose: 50.0 mg/kg/injection, schedule: Q04DX002 (ip), vehicle: saline with Tween-80) was 101 % of control.
